≈ marks a conversion by molar mass, not a printed value. Where a SMILES comes first, the peptide text is derived from it. [ ]: non-standard residue; d: D form. Nleu = CC(C)CNCC(=O)O; Nlys = NCCCCNCC(=O)O
Columns and labels:
[1] = test system: human red blood cells (hRBC); assay: Minimum hemolytic concentration (MHC); type: cell-based
Text: We also measured minimal hemolysis concentrations (MHC) on human red blood cells by serial 2-fold dilution as an indication of toxicity against eukaryotic cells (Table 1).

P. aeruginosa PAO1 = test system: P. aeruginosa PAO1
In short: (§1)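 MIC read visually after MTT staining: lowest compound concentration preventing visible growth (yellow wells). Inoculum ~5 × 10^5 CFU per well in MH broth; static incubation at 37 °C for ca. 18 h.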

K. pneumoniae OXA-48 = settings: […] MH at pH 8.5
In short: as §1

PA14 2P4 (pmrB) = test system: PA14 2P4 (pmrB)
In short: as §1

PA14 4.18 (pmrB) = test system: PA14 4.18 (pmrB)
In short: as §1

PA14 4.13 (phoQ) = test system: PA14 4.13 (phoQ)
In short: as §1

E. coli W3110 = test system: E. coli W3110
In short: as §1

A. baumannii ATCC19606 = test system: A. baumannii ATCC19606
In short: (§2)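 MTT added (20–30 min, room temperature); MIC read by eye as lowest concentration inhibiting visible growth (yellow). Polymyxin B positive control from 16 μg/mL.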

K. pneumoniae NCTC418 = test system: K. pneumoniae NCTC418
In short: as §2

S. aureus COL (MRSA) = test system: S. aureus COL (MRSA)
In short: as §1

[2] = test system: ZEM9A (clinical MDR P. aeruginosa isolate); settings: […] MH at pH 8.5
In short: as §1

[3] = test system: ZEM-1A (clinical MDR P. aeruginosa isolate)
In short: as §1

E. cloacae = settings: Table S3; […] MH at pH 8.5
In short: as §1

P. aeruginosa PA14 = settings: Table S3; […] MH at pH 8.5, 16-20 hours at 37 °C
In short: as §1

B. cenocepacia = settings: 4 h, pH 8.5
In short: as §1

S. epidermis = settings: Table S3; […] MH at pH 8.5
In short: as §1

S. aureus Newman = settings: Table S3; […] MH at pH 8.5
In short: as §1

S. maltophilia = settings: Table S3; […] MH at pH 8.5
In short: as §1

[4] = diluted MH ([…] MH) at pH 8.5 (Table 2 footnote b)

CC(C)C[C@H](NC(=O)CN(CC(C)C)C(=O)[C@H](CC(C)C)NC(=O)CN(CCCCN)C(=O)[C@H](CC(C)C)NC(=O)CN(CC(C)C)C(=O)[C@H](CCCCN)NC(=O)CN(CC(C)C)C(=O)[C@H](CC(C)C)NC(=O)CN(CCCCN)C(=O)[C@@H](N)CCCCN)C(N)=O [EB9, KkLlKlLkLlL] (H-K[Nlys]L[Nleu]K[Nleu]L[Nlys]L[Nleu]L-NH2)
Hemolysis [1]: none of them showed any measurable hemolysis | MHC [1]: >2000 µg/mL | Antibacterial activity as a function of NaCl concentration (P. aeruginosa PAO1; P. aeruginosa PAO1, […] MH at pH 8.5, up to 300 mM NaCl): strongly reduced | MIC P. aeruginosa PAO1, full MH at pH 7.4 (P. aeruginosa PAO1; PAO1, 4 h, pH 7.4): 32 ug/mL | MIC P. aeruginosa PAO1 […] 7.4 (P. aeruginosa PAO1; Table S2, […] MH, pH 7.4): 4 µg/mL (≈ 3.03 µM) | MIC P. aeruginosa PAO1 […] 8.5 (P. aeruginosa PAO1; Table S2, […] MH, pH 8.5): 2 µg/mL (≈ 1.51 µM) | MIC P. aeruginosa PAO1 Full MH 7.4 (P. aeruginosa PAO1; Table S2, full MH, pH 7.4): 32 µg/mL (≈ 24.2 µM) | MIC P. aeruginosa PAO1 Full MH 8.5 (P. aeruginosa PAO1; Table S2, full MH, pH 8.5): > 32 µg/mL | MIC K. pneumoniae OXA-48, […] MH at pH 8.5 (K. pneumoniae OXA-48; CSV): 32 ug/mL | MIC K. pneumoniae OXA-48 (K. pneumoniae OXA-48; Table S3): 32 µg/mL (≈ 24.2 µM) | MIC P. aeruginosa PA14 2P4, […] MH at pH 8.5 (PA14 2P4 (pmrB); CSV, […] MH at pH 8.5): 4 ug/mL | MIC PA14 2P4 (pmrB) (PA14 2P4 (pmrB); [4]): 4 µg/mL (≈ 3.03 µM) | MIC P. aeruginosa PA14 4.18, […] MH at pH 8.5 (PA14 4.18 (pmrB); CSV, […] MH at pH 8.5): 6 ug/mL | MIC P. aeruginosa PA14 4.18 (PA14 4.18 (pmrB); Table S3, […] MH at pH 8.5): 4 to 8 µg/mL | MIC PA14 4.18 (pmrB) (PA14 4.18 (pmrB); [4]): 4 to 8 µg/mL | MIC P. aeruginosa PA14 4.13, […] MH at pH 8.5 (PA14 4.13 (phoQ); CSV, […] MH at pH 8.5): 2 ug/mL | MIC PA14 4.13 (phoQ) (PA14 4.13 (phoQ); [4]): 2 µg/mL (≈ 1.51 µM) | MIC E. coli W3110, […] MH at pH 7.4 (E. coli W3110; CSV, […] MH at pH 7.4): 2 ug/mL | MIC E. coli W3110, […] MH at pH 8.5 (E. coli W3110; CSV, […] MH at pH 8.5): 2 ug/mL | MIC E. coli W3110, full MH at pH 7.4 (E. coli W3110; CSV, full MH at pH 7.4): 16 ug/mL | Antibacterial activity as a function of NaCl concentration (E. coli W3110; E. coli W3110, […] MH at pH 8.5, up to 300 mM NaCl): strongly reduced | MIC E. coli W3110 […] 7.4 (E. coli W3110; Table S2, […] MH, pH 7.4): 2 µg/mL (≈ 1.51 µM) | MIC E. coli W3110 […] 8.5 (E. coli W3110; Table S2, […] MH, pH 8.5): 2 µg/mL (≈ 1.51 µM) | MIC E. coli W3110 Full MH 7.4 (E. coli W3110; Table S2, full MH, pH 7.4): 16 µg/mL (≈ 12.1 µM) | MIC E. coli W3110 Full MH 8.5 (E. coli W3110; Table S2, full MH, pH 8.5): > 32 µg/mL | MIC A. baumannii ATCC19606, full MH at pH 7.4 (A. baumannii ATCC19606; ATCC19606, 4 h, pH 7.4): >32 ug/mL | MIC A. baumannii ATCC19606, full MH at pH 8.5 (A. baumannii ATCC19606; ATCC19606, 4 h, pH 8.5): >32 ug/mL | MIC A. baumannii ATCC19606 […] 7.4 (A. baumannii ATCC19606; Table S2, […] MH, pH 7.4): 16 µg/mL (≈ 12.1 µM) | MIC A. baumannii ATCC19606 […] 8.5 (A. baumannii ATCC19606; Table S2, […] MH, pH 8.5): 8 µg/mL (≈ 6.05 µM) | MIC A. baumannii ATCC19606 Full MH 7.4 (A. baumannii ATCC19606; Table S2, full MH, pH 7.4): > 32 µg/mL | MIC A. baumannii ATCC19606 Full MH 8.5 (A. baumannii ATCC19606; Table S2, full MH, pH 8.5): > 32 µg/mL | MIC K. pneumoniae NCTC418, full MH at pH 7.4 (K. pneumoniae NCTC418; NCTC418, 4 h, pH 7.4): >32 ug/mL | MIC K. pneumoniae NCTC418, full MH at pH 8.5 (K. pneumoniae NCTC418; NCTC418, 4 h, pH 8.5): >32 ug/mL | MIC K. pneumoniae NCTC418 […] 7.4 (K. pneumoniae NCTC418; Table S2, […] MH, pH 7.4): > 32 µg/mL | MIC K. pneumoniae NCTC418 […] 8.5 (K. pneumoniae NCTC418; Table S2, […] MH, pH 8.5): 16 µg/mL (≈ 12.1 µM) | MIC K. pneumoniae NCTC418 Full MH 7.4 (K. pneumoniae NCTC418; Table S2, full MH, pH 7.4): > 32 µg/mL | MIC K. pneumoniae NCTC418 Full MH 8.5 (K. pneumoniae NCTC418; Table S2, full MH, pH 8.5): > 32 µg/mL | MIC S. aureus COL (MRSA), full MH at pH 7.4 (S. aureus COL (MRSA); COL, 4 h, pH 7.4): >32 ug/mL | MIC S. aureus COL (MRSA), full MH at pH 8.5 (S. aureus COL (MRSA); COL, 4 h, pH 8.5): >32 ug/mL | MIC S. aureus COL (MRSA) […] 7.4 (S. aureus COL (MRSA); Table S2, […] MH, pH 7.4): 32 µg/mL (≈ 24.2 µM) | MIC S. aureus COL (MRSA) Full MH 7.4 (S. aureus COL (MRSA); Table S2, full MH, pH 7.4): > 32 µg/mL | MIC S. aureus COL (MRSA) Full MH 8.5 (S. aureus COL (MRSA); Table S2, full MH, pH 8.5): > 32 µg/mL | MIC P. aeruginosa ZEM9A, […] MH at pH 8.5 ([2]; CSV): 2 ug/mL | MIC P. aeruginosa ZEM9A ([2]; Table S3): 2 µg/mL (≈ 1.51 µM) | MIC P. aeruginosa ZEM-1A, […] MH at pH 8.5 ([3]; CSV, […] MH at pH 8.5): 3 ug/mL | MIC P. aeruginosa ZEM-1A ([3]; Table S3, […] MH at pH 8.5): 2 to 4 µg/mL | MIC ZEM-1A [3, 4]: 2 to 4 µg/mL | MIC E. cloacae (E. cloacae): 16 µg/mL (≈ 12.1 µM) | MIC P. aeruginosa PA14 (P. aeruginosa PA14): 2 µg/mL (≈ 1.51 µM) | MIC B. cenocepacia (B. cenocepacia): >32 µg/mL | MIC S. epidermis (S. epidermis): 2 µg/mL (≈ 1.51 µM) | MIC S. aureus Newman (S. aureus Newman): 4 µg/mL (≈ 3.03 µM) | MIC S. maltophilia (S. maltophilia): 8 µg/mL (≈ 6.05 µM)

Reference: paper PMC10714400, “Antimicrobial Peptide–Peptoid Hybrids with and without Membrane Disruption” (ACS Infectious Diseases, 2023)
